In the experiment the target is T1, human full-length recombinant PKC βII (Homo sapiens, UniProt P05771).
T1 construct: Active human full-length recombinant PKC βII; purchased Invitrogen GmbH, Darmstadt, Germany
T1 sequence (P05771 1-673 isoform P05771-2): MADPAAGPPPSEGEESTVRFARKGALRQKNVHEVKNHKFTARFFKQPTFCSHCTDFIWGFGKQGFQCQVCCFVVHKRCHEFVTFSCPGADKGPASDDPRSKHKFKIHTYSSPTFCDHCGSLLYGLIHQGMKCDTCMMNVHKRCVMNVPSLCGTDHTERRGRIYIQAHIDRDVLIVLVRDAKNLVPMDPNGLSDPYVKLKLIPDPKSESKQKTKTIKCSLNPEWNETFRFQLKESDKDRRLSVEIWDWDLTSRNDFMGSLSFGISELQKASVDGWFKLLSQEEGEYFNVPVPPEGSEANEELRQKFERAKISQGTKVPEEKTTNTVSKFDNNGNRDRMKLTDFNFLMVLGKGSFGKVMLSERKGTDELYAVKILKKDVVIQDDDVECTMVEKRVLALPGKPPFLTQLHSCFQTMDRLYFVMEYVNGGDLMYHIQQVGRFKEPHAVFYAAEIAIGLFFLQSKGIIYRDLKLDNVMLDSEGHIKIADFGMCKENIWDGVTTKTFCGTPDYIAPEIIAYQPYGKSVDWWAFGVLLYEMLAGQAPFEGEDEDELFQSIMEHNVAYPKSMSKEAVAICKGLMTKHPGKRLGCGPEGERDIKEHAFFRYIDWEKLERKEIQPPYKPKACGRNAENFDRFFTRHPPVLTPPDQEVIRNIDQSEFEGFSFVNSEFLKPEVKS
As to the kind of experiment: Determination of PKC βII inhibition (Caliper mobility shift kinase assay). In kind it is biochemical. The following applies: final compound concentration 1.14 μM (±0.15 μM); 60 min incubation at 32° C. Here is the method: Determination of PKC βII Inhibition
PKC βII inhibition was determined according to the following protocol:
Active human full-length recombinant PKC βII and the peptide substrate, Fluorescein-RFARKGSLRQKNV, were purchased from Invitrogen GmbH, Darmstadt, Germany. Adenosine-5′-triphosphate (ATP), bovine serum albumine (BSA), dimethylsulphoxide (DMSO), 4-(2-hydroxyethyl)piperazine-1-ethanesulfonic acid (Hepes), Triton X-100, 1,2-Dioleoyl-sn-glycerol (DAG), L-α-Phosphatidyl-L-serine (PS), calcium chloride (CaCl2), and Pluronic F-68 were purchased from Sigma-Aldrich, Munich, Germany. Magnesium chloride, 1 M sodium hydroxide solution, 1M hydrochloric acid solution and EDTA were obtained from Merck Biosciences, Darmstadt, Germany.
Test compounds were diluted to three times the test concentration in buffer 1 (30 mM Hepes-NaOH, pH 7.4, 0.01% Pluronic F-68 and 3% (v/v) DMSO). The […] enzyme was diluted to a concentration of 30 ng/ml in buffer 2 (30 mM Hepes-NaOH, pH 7.4, 15 mM MgCl2, 150 μM CaCl2, 150 μg/ml PS, 60 μg/ml DAG, and 0.045% (w/v) Triton X-100). The peptide substrate and ATP were diluted to concentrations of 3 μM and 120 μM, respectively, in buffer 2. Two μl of the compound solution were mixed with 2 μl of the diluted enzyme in a 384-well small volume microtiter plate (Greiner, Bio-One, Frickenhausen, Germany), and the kinase reaction was initiated by addition of 2 μl of the solution containing peptide substrate and ATP. After 60 min incubation at 32° C., the reaction was stopped by addition of 20 μl of a solution containing 130 mM Hepes-NaOH, pH 7.4, 0.0195% (v/v) Brij-35, 6.5 mM EDTA, 0.13% chip coating reagent 3 (Caliper Lifescience Inc, Hopkinton, Mass.) and 6.5% (v/v) DMSO. Phosphorylation of the substrate peptide was then detected on a Caliper 3000 instrument essentially as described by Pommereau et al (J. Biomol. Screening 2004, 9(5), 409-416). Separation conditions were as follows: Pressure −0.8 psi, upstream voltage −3000 V, downstream voltage −800 V. Positive controls (buffer 1 instead of compound) and negative controls (buffer 1 instead of compound and buffer 2 instead of kinase solution) were run in parallel on each plate. Fractional turnover (R) was determined as the height of the peak of the phosphorylated peptide product divided by the sum of the unphosphorylated substrate and phosphorylated product peak heights. Percent-inhibition values for the test compounds were determined using the formula % Inhibition=100*(1−(Rcompound−Rnegative control)/(Rpositive control−Rnegative control).
In the following table % inhibition values observed with example compounds at a final concentration of 1.14 μM (±0.15 μM) are listed: […]
In the case of `Cc1n[nH]c2nc(-c3ccc(O)cc3F)cc(CN3CC4(CCCC4)NCC3C)c12` (centres unmarked) [Example 35, 3-Fluoro-4-[3-methyl-4-(8-methyl-6,9-diaza-spiro[4.5]dec-9-ylmethyl)-1H-pyrazolo[3,4-b]pyridin-6-yl]-phenol], the inhibition (as a rule, the percentage by which the read-out fell short of the control) at 1.14 µM was found to be 78%.

As to `Cc1n[nH]c2nc(-c3ccc(O)cc3F)cc(CN3CC(C)(C)N(CCO)CC3(C)C)c12` [Example 72, 3-Fluoro-4-{4-[4-(2-hydroxy-ethyl)-2,2,5,5-tetramethyl-piperazin-1-ylmethyl]-3-methyl-1H-pyrazolo[3,4-b]pyridin-6-yl}-phenol], the inhibition at 1.14 µM was 100%.

With `CC(=O)N1CC(C)(C)N(Cc2cc(-c3ccc(O)cc3F)nc3[nH]nc(C)c23)CC1(C)C` [Example 78, 1-{4-[6-(2-Fluoro-4-hydroxy-phenyl)-3-methyl-1H-pyrazolo[3,4-b]pyridin-4-ylmethyl]-2,2,5,5-tetramethyl-piperazin-1-yl}-ethanone], the inhibition at 1.14 µM amounted to 97%.

Turning to `CC[C@]1(C)CNC(C)(C)CN1Cc1cc(-c2ccc(O)cc2)nc2[nH]nc(C)c12` [Example 141, 4-[4-((R)-2-Ethyl-2,5,5-trimethyl-piperazin-1-ylmethyl)-3-methyl-1H-pyrazolo[3,4-b]pyridin-6-yl]-phenol], the inhibition at 1.14 µM came to 98%.

In the case of `Cc1n[nH]c2nc(-c3ccc(O)cc3F)cc(CN3CC(C)NCC34CCCC4)c12` (centres unmarked) [Example 16, 3-Fluoro-4-[3-methyl-4-(8-methyl-6,9-diaza-spiro[4.5]dec-6-ylmethyl)-1H-pyrazolo[3,4-b]pyridin-6-yl]-phenol], the inhibition at 1.14 µM is 99%.

Turning to `Cc1n[nH]c2nc(-c3ccc(O)cc3F)cc(CN3C[C@@H](c4ccccc4)NC[C@@H]3C)c12` (relative stereo) [Example 29, 3-Fluoro-4-[3-methyl-4-(trans-2-methyl-5-phenyl-piperazin-1-ylmethyl)-1H-pyrazolo[3,4-b]pyridin-6-yl]-phenol], the % Inhibition (commonly the relative decrease from the control value, in per cent) is listed as 90%.

With `CCNC(=O)N1CC(C)(C)N(Cc2cc(-c3ccc(O)cc3)nc3[nH]nc(C)c23)CC1(C)C` [Example 88, 4-[6-(4-Hydroxy-phenyl)-3-methyl-1H-pyrazolo[3,4-b]pyridin-4-ylmethyl]-2,2,5,5-tetramethyl-piperazine-1-carboxylic acid ethylamide], the inhibition at 1.14 µM is 89%.

Turning to `CC[C@@]1(C)CNC(C)(C)CN1Cc1cc(-c2ccc(O)cc2F)nc2[nH]nc(C)c12` [Example 122, 4-[4-((S)-2-Ethyl-2,5,5-trimethyl-piperazin-1-ylmethyl)-3-methyl-1H-pyrazolo[3,4-b]pyridin-6-yl]-3-fluoro-phenol], the inhibition at 1.14 µM worked out at 100%.

With `Cc1n[nH]c2nc(-c3ccc(O)cc3F)cc(CN3CC(C)(C)N(C)CC3(C)C)c12` [Example 66, 3-Fluoro-4-[3-methyl-4-(2,2,4,5,5-penta-methyl-piperazin-1-ylmethyl)-1H-pyrazolo[3,4-b]-pyridin-6-yl]-phenol], the inhibition at 1.14 µM is 100%.

In the case of `Cc1n[nH]c2nc(-c3ccc(O)cc3F)cc(CN3CCNCC3c3ccc(F)cc3)c12` (centres unmarked) [Example 4, 3-Fluoro-4-{4-[2-(4-fluoro-phenyl)-piperazin-1-ylmethyl]-3-methyl-1H-pyrazolo[3,4-b]pyridin-6-yl}-phenol], the inhibition at 1.14 µM amounted to 94%.

In the case of `Cc1n[nH]c2nc(-c3ccc(O)cc3)cc(CN3CC(C)(C)NC[C@@H]3C)c12` [Example 139, 4-[3-Methyl-4-((S)-2,5,5-trimethyl-piperazin-1-ylmethyl)-1H-pyrazolo[3,4-b]pyridin-6-yl]-phenol], the inhibition at 1.14 µM is 95%.

For the compound `Cc1n[nH]c2nc(-c3ccc(O)cc3F)cc(CN3CC(C)(C)NC[C@@H]3C)c12` [Example 124, 3-Fluoro-4-[3-methyl-4-((S)-2,5,5-trimethyl-piperazin-1-ylmethyl)-1H-pyrazolo[3,4-b]pyridin-6-yl]-phenol], the inhibition at 1.14 µM came out at 83%.

On to `Cc1n[nH]c2nc(-c3ccc(O)cc3F)cc(CN3CC4(CCCC4)N(C)CC3(C)C)c12` [Example 71, 3-Fluoro-4-[3-methyl-4-(6,8,8-trimethyl-6,9-diaza-spiro[4.5]dec-9-ylmethyl)-1H-pyrazolo[3,4-b]pyridin-6-yl]-phenol], for which the inhibition at 1.14 µM came to 98%.

On to `Cc1n[nH]c2nc(-c3ccc(O)cc3F)cc(CN3CCNC(C)(C)C3)c12` [Example 55, 4-[4-(3,3-Dimethyl-piperazin-1-ylmethyl)-3-methyl-1H-pyrazolo[3,4-b]pyridin-6-yl]-3-fluoro-phenol], for which the inhibition at 1.14 µM came out at 86%.

On to `COC(=O)CNC(=O)N1CC(C)(C)N(Cc2cc(-c3ccc(O)cc3)nc3[nH]nc(C)c23)CC1(C)C` [Example 87, ({4-[6-(4-Hyd roxy-phenyl)-3-methyl-1H-pyrazolo[3,4-b]pyridin-4-ylmethyl]-2,2,5,5-tetramethyl-piperazine-1-carbonyl}-amino)-acetic acid methyl ester], for which the inhibition at 1.14 µM is 92%.

Regarding `Cc1n[nH]c2nc(-c3ccc(O)cc3)cc(CN3CCNC[C@H]3c3ccc(C(F)(F)F)cc3)c12` [Example 114, 4-{3-Methyl-4-[(R)-2-(4-trifluoromethyl-phenyl)-piperazin-1-ylmethyl]-1H-pyrazolo[3,4-b]pyridin-6-yl}-phenol], the inhibition at 1.14 µM was determined as 57%.

Regarding `Cc1n[nH]c2nc(-c3ccc(O)cc3F)cc(CN3CC(C)(C)OCC3(C)C)c12` [Example 56, 3-Fluoro-4-[3-methyl-4-(2,2,5,5-tetramethyl-morpholin-4-ylmethyl)-1H-pyrazolo[3,4-b]pyridin-6-yl]-phenol], the inhibition at 1.14 µM was 85%.

Consider `Cc1n[nH]c2nc(-c3ccc(O)cc3F)cc(CN3CC4(CCCC4)NC[C@H]3C)c12` [Example 138, 3-Fluoro-4-[3-methyl-4-((R)-8-methyl-6,9-diaza-spiro[4.5]dec-9-ylmethyl)-1H-pyrazolo[3,4-b]pyridin-6-yl]-phenol], for which the inhibition at 1.14 µM came to 98%.

`Cc1n[nH]c2nc(-c3ccc(O)cc3F)cc(CN3CCNCC3c3ccc(C(F)(F)F)cc3)c12` (centres unmarked) [Example 3]: the inhibition at 1.14 µM was 68%.

`Cc1n[nH]c2nc(-c3ccc(O)cc3)cc(CN3CC(C)(C)N(CCC(F)(F)F)CC3(C)C)c12` [Example 83, 4-{3-Methyl-4-[2,2,5,5-tetramethyl-4-(3,3,3-trifluoro-propyl)-piperazin-1-ylmethyl]-1H-pyrazolo[3,4-b]pyridin-6-yl}-phenol]: the inhibition at 1.14 µM turned out to be 69%.

In the case of `CCC1(C)CNC(C)(C)CN1Cc1cc(-c2ccc(O)cc2)nc2[nH]nc(C)c12` (centres unmarked) [Example 50, 4-[4-(2-Ethyl-2,5,5-trimethyl-piperazin-1-ylmethyl)-3-methyl-1H-pyrazolo[3,4-b]pyridin-6-yl]-phenol], the inhibition at 1.14 µM is 96%.

`COCC(=O)N1CCCN(Cc2cc(-c3ccc(O)cc3F)nc3[nH]nc(C)c23)CC1C` (centres unmarked) [Example 79, 1-{4-[6-(2-Fluoro-4-hydroxy-phenyl)-3-methyl-1H-pyrazolo[3,4-b]pyridin-4-ylmethyl]-2-methyl-[1,4]diazepan-1-yl}-2-methoxy-ethanone]: the inhibition at 1.14 µM stood at 65%.

`Cc1n[nH]c2nc(-c3ccc(O)cc3F)cc(CN3CC(C)(C4CC4)NCC3(C)C)c12` (centres unmarked) [Example 23, 4-[4-(5-Cyclopropyl-2,2,5-trimethyl-piperazin-1-ylmethyl)-3-methyl-1H-pyrazolo[3,4-b]pyridin-6-yl]-3-fluoro-phenol]: the inhibition at 1.14 µM came to 99%.

As to `Cc1n[nH]c2nc(-c3ccc(O)cc3F)cc(CN3CC(C)(C)NC[C@H]3C)c12` [Example 123, 3-Fluoro-4-[3-methyl-4-((R)-2,5,5-trimethyl-piperazin-1-ylmethyl)-1H-pyrazolo[3,4-b]pyridin-6-yl]-phenol], the inhibition at 1.14 µM was determined as 88%.

As for `Oc1ccc(-c2cc(CN3CCNCC3)c3c(C4CC4)n[nH]c3n2)cc1` [Example 95, 4-(3-Cyclopropyl-4-piperazin-1-ylmethyl-1H-pyrazolo[3,4-b]pyridin-6-yl)-phenol], the inhibition at 1.14 µM came to 53%.

With `Cc1n[nH]c2nc(-c3ccc(O)cc3)cc(CN3CCNC[C@@H]3c3ccc(C(F)(F)F)cc3)c12` [Example 113, 4-{3-Methyl-4-[(S)-2-(4-trifluoromethyl-phenyl)-piperazin-1-ylmethyl]-1H-pyrazolo[3,4-b]pyridin-6-yl}-phenol], the inhibition at 1.14 µM came to 81%.
